Measurements taken from ChEMBL document CHEMBL1201862, “PubChem BioAssay data set” (2004).
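Growth conditions: 96-well plates. Treatment: test compound, 48 hours, 5 concentrations. Analysis: linear interpolation between bracketing concentrations; unreached endpoints set to highest concentration. GI50 is the concentration that inhibits growth by half.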 Activity calls are given as the source filed them. Rule as the data show it: active = GI50 up to about 1.1 µM and inactive = higher.

Key:
Assay in all cases: NCI anticancer screen, dose series, 48 h
[1] = test system: M19-MEL
[2] = test system: DMS-114
[3] = test system: HOP-18
[4] = test system: DMS-273
[5] = test system: SNB-78
[6] = test system: LXFL 529
[7] = test system: RXF 631
[8] = test system: Hs-578T
[9] = test system: XF498

**Q.** Which results are given for `CCCCCCCC[N+](C)(C)Cc1ccc(C[N+](C)(C)CCCCCCCC)cc1`?
**A.** GI50 [1]: 31.3 µM (inactive); GI50 [2]: 8.67 µM (inactive); GI50 [3]: > 100 µM (inactive); GI50 [4]: 3.84 µM (inactive); GI50 [5]: 44.3 µM (inactive); GI50 [6]: 14.6 µM (inactive); GI50 [7]: > 100 µM (inactive)

**Q.** How did the GI50 [8] turn out when `CC(O)CC(=O)CO[C@H]1[C@H](O)[C@@H](O)[C@@H](O)[C@@H]2NC(=O)c3c(cc4c(c3O)OCO4)[C@H]21` (stereo partly drawn) was run?
**A.** 0.0398 µM (active)

**Q.** Which GI50 [8] does the source give for `COc1ccc(-c2cc(-c3ccccc3)nc(/N=C\c3ccccc3)n2)c(O)c1` here?
**A.** > 100 µM (inactive)

**Q.** For `NCCCNC(=O)c1csc(NC(=O)c2csc(NC(=O)CCCN)n2)n1`, which GI50 [1] is on record?
**A.** > 100 µM (inactive)

**Q.** And the GI50 [2]?
**A.** > 100 µM (inactive)

**Q.** And the GI50 [3]?
**A.** > 100 µM (inactive)

**Q.** What about the GI50 [4] of the same compound?
**A.** > 100 µM (inactive)

**Q.** And the GI50 [5]?
**A.** > 100 µM (inactive)

**Q.** And the GI50 [6]?
**A.** > 100 µM (inactive)

**Q.** What about the GI50 [7] of the same compound?
**A.** > 100 µM (inactive)

**Q.** With `CCOP(=O)(OCC)OC1c2[nH]cc(C(=O)OCc3ccccc3)c2-c2cc(C(=O)OC)[nH]c2C1OC` (stereo not drawn) as the compound, how does the GI50 [8] read?
**A.** 16.8 µM (inactive)

**Q.** Which GI50 [8] does the source give for `CCCCn1c2c(n(CCCC)c1=[Se])-c1c(n(CCCC)c(=[Se])n1CCCC)S[Se][Se]S2` here?
**A.** 18.7 µM (inactive)

**Q.** `O=C1c2cc(Cc3ccccc3)c(=O)c(Cc3ccccc3)cc2C(=O)c2cc(Cc3ccccc3)c(=O)c(Cc3ccccc3)cc21` was tested. Which GI50 [8] did it give?
**A.** > 100 µM (inactive)

**Q.** For `COc1ccc2c3c([nH]c2c1[N+](=O)[O-])C(C)N(Cc1ccc([N+](=O)[O-])cc1)CC3` (stereo not drawn), which GI50 [4] is on record?
**A.** 6.24 µM (inactive)

**Q.** And the GI50 [5]?
**A.** 26.2 µM (inactive)

**Q.** And the GI50 [6]?
**A.** 5.7 µM (inactive)

**Q.** How did the GI50 [8] turn out when `O=P(O)(CCP(=O)(O)c1ccccc1)c1ccccc1` was run?
**A.** > 100 µM (inactive)

**Q.** With `CC(=O)SC(C[N+](=O)[O-])c1ccccc1` (stereo not drawn) as the compound, how does the GI50 [8] read?
**A.** 4.65 µM (inactive)

**Q.** `COc1ccc2c(c1)c1c3c(ccc4ncn2c43)N(CCN(C)C)CCN=1` was tested. Which GI50 [8] did it give?
**A.** 1.06 µM (active)

**Q.** With `CCOC(=O)c1cc(C2CCN(c3ccccc3)C2=O)c(C(=O)/C=C(/C)O)[nH]1` (stereo not drawn) as the compound, how does the GI50 [8] read?
**A.** 93.8 µM (inactive)

**Q.** How did the GI50 [8] turn out when `CCN(CC)c1ccc(/C=C/C2=NN(c3cccc(S(=O)(=O)O)c3)C3(C2)SCC(=O)N3c2nc3ccccc3s2)cc1` (stereo not drawn) was run?
**A.** 33.3 µM (inactive)

**Q.** `COC(=O)C(=O)C(C(=O)C(N)=O)c1nc2ccc(C(=O)c3ccccc3)cc2nc1O` (stereo not drawn) was tested. Which GI50 [8] did it give?
**A.** 80.5 µM (inactive)

**Q.** What does the source list for `O=C(NC(=O)c1cn(CCN2CCN(C(=O)NCCCCCCNC(=O)N3CCN(CCn4cc(C(=O)NC(=O)OCc5ccccc5)c(=O)[nH]c4=O)CC3)CC2)c(=O)[nH]c1=O)OCc1ccccc1`?
**A.** GI50 [1]: > 100 µM (inactive); GI50 [2]: > 100 µM (inactive); GI50 [3]: > 100 µM (inactive); GI50 [4]: > 100 µM (inactive); GI50 [5]: > 100 µM (inactive); GI50 [7]: > 100 µM (inactive)

**Q.** `CCCCCCCCCCCCCOCCOCCOCCCCC(O)CCCCCCCCCC1=C[C@H](C)OC1=O` (stereo partly drawn) was tested. Which GI50 [8] did it give?
**A.** 14.9 µM (inactive)

**Q.** What does the source list for `COC(=O)CC1NC(=O)C1C(C)(OC)OC` (stereo not drawn)?
**A.** GI50 [1]: > 100 µM (inactive); GI50 [9]: > 100 µM (inactive); GI50 [2]: > 100 µM (inactive); GI50 [4]: > 100 µM (inactive); GI50 [6]: > 100 µM (inactive); GI50 [7]: > 100 µM (inactive)

**Q.** How did the GI50 [8] turn out when `O=C1C=C(c2ccccc2)O/C1=C\C(=O)c1ccc(Cl)cc1` was run?
**A.** 21.9 µM (inactive)

**Q.** How did the GI50 [8] turn out when `COc1ccc(-c2c(C#N)c(-c3ccc(C)cc3)n(NS(=O)(=O)c3ccccc3)c(=O)c2C#N)cc1` was run?
**A.** 33.7 µM (inactive)

**Q.** Which results are given for `CN1N=C2c3ccccc3CC[C@H]2C1c1cccc(O)c1` (stereo partly drawn)?
**A.** GI50 [1]: > 100 µM (inactive); GI50 [9]: > 100 µM (inactive); GI50 [2]: > 100 µM (inactive); GI50 [4]: > 100 µM (inactive); GI50 [6]: 99.5 µM (inactive)

**Q.** With `CC1(C)CCC[C@]2(C)[C@H]3[C@H](C#N)c4cc(O)c(O)cc4O[C@@]3(C)CC[C@@H]12` as the compound, how does the GI50 [8] read?
**A.** > 10 µM (inactive)

**Q.** With `Clc1ccc(-c2cn3c(nc4ccccc43)c(/C=C/c3ccco3)n2)cc1` as the compound, how does the GI50 [8] read?
**A.** 14.8 µM (inactive)

**Q.** Which GI50 [8] does the source give for `C[n+]1c(-c2ccc(/C=N/NC(=O)C(=O)N/N=C/c3ccc(-c4cn5ccccc5[n+]4C)cc3)cc2)cn2ccccc21` here?
**A.** > 100 µM (inactive)

**Q.** How did the GI50 [1] turn out when `COc1ccc(/C=N/NC(=O)C2=C(N)N(c3ccccc3)C(=C(C#N)C#N)S2)cc1` was run?
**A.** > 100 µM (inactive)

**Q.** What about the GI50 [3] of the same compound?
**A.** > 100 µM (inactive)

**Q.** And the GI50 [8]?
**A.** > 100 µM (inactive)

**Q.** What about the GI50 [6] of the same compound?
**A.** > 100 µM (inactive)

**Q.** For `NC(=O)NC1NC(=O)NC1=O` (stereo not drawn) [ALLANTOIN], which GI50 [8] is on record?
**A.** > 100 µM (inactive)

**Q.** With `O=[N+]([O-])c1ccc(CSC2=C(c3ccc(Cl)cc3)S/C(=C3\SC(SCc4ccc([N+](=O)[O-])cc4)=C(c4ccc(Cl)cc4)S3)S2)cc1` as the compound, how does the GI50 [8] read?
**A.** > 100 µM (inactive)

**Q.** For `Cc1cc2c(C)n(Cc3ccccc3Cl)nc2c(C(=O)O)c1C`, which GI50 [1] is on record?
**A.** > 100 µM (inactive)

**Q.** And the GI50 [9]?
**A.** > 100 µM (inactive)

**Q.** And the GI50 [3]?
**A.** > 100 µM (inactive)

**Q.** And the GI50 [4]?
**A.** > 100 µM (inactive)

**Q.** What about the GI50 [5] of the same compound?
**A.** > 100 µM (inactive)

**Q.** What about the GI50 [6] of the same compound?
**A.** > 100 µM (inactive)

**Q.** Which GI50 [8] does the source give for `C/C(=C\COc1cc(O)c2c(c1)C(=O)c1cc(C)cc(O)c1C2=O)CCC1OC1(C)C` (stereo not drawn) here?
**A.** 24.1 µM (inactive)

**Q.** How did the GI50 [8] turn out when `CCOC(=O)c1c(SCCN2CCCCC2)n(-c2ccccc2)c(=S)n(-c2ccccc2)c1=O` was run?
**A.** 26.1 µM (inactive)

**Q.** How did the GI50 [8] turn out when `CCn1c(-c2c(Cl)cc(O)cc2Cl)cc2c(Cl)cc(O)cc21` was run?
**A.** 5.07 µM (inactive)

**Q.** For `O=S(=O)(O)C(F)(F)C(F)(F)C(F)(F)C(F)(F)F`, which GI50 [1] is on record?
**A.** > 100 µM (inactive)

**Q.** What about the GI50 [9] of the same compound?
**A.** > 100 µM (inactive)

**Q.** What about the GI50 [2] of the same compound?
**A.** > 100 µM (inactive)

**Q.** And the GI50 [3]?
**A.** > 100 µM (inactive)

**Q.** What about the GI50 [4] of the same compound?
**A.** > 100 µM (inactive)

**Q.** And the GI50 [6]?
**A.** > 100 µM (inactive)

**Q.** `O=C(CCc1cccc(O)c1)NCCc1ccc(O)cc1` was tested. Which GI50 [8] did it give?
**A.** > 100 µM (inactive)

**Q.** With `CC(Oc1ccccc1Cl)C(=O)NN1C(=O)CC(=O)NC1=S` (stereo not drawn) as the compound, how does the GI50 [8] read?
**A.** > 100 µM (inactive)

**Q.** With `C=C1C(=O)OC2C3C(=C)[C@@H](OC(C)=O)CC3C(C)=CC(OC(=O)C(C)(O)C(C)OC(C)=O)[C@@H]12` (stereo partly drawn) as the compound, how does the GI50 [8] read?
**A.** 12.8 µM (inactive)

**Q.** With `COc1cc(OC)c(-n2[nH]c(=O)n(C)c2=O)c(OC)c1` as the compound, how does the GI50 [8] read?
**A.** > 100 µM (inactive)

**Q.** `CCNc1ccc2c(c1)C(=O)N(OS(C)(=O)=O)C2=O` was tested. Which GI50 [8] did it give?
**A.** > 100 µM (inactive)

**Q.** For `Cc1cc2c(=O)cc(-c3ccc(Cl)cc3Cl)oc2c(C(=O)O)c1C`, which GI50 [9] is on record?
**A.** > 100 µM (inactive)

**Q.** What about the GI50 [2] of the same compound?
**A.** > 100 µM (inactive)

**Q.** What about the GI50 [3] of the same compound?
**A.** > 100 µM (inactive)

**Q.** And the GI50 [5]?
**A.** > 100 µM (inactive)

**Q.** And the GI50 [6]?
**A.** > 100 µM (inactive)

**Q.** For `CC(C)CNC(=O)Cn1c(-c2ccccc2)cc2ccccc21`, which GI50 [8] is on record?
**A.** 19.5 µM (inactive)
